The target of assay [1] is T1, Recombinant ROCK1 (amino acids 1-477) (Homo sapiens, UniProt Q13464).
T1 construct: Recombinant ROCK1 (amino acids 1-477); by word order, ROCK1 from Carna Biosciences
Put plainly: ROCK inhibition assay, LANCE Ultra TR-FRET kinase assay (ROCK1). The assay is classed as biochemical. The note with it: 1 μM ATP, 50 nM ULight-CREBtide substrate. The method, then: (§1) Kinase IC50 was determined through an in vitro assay based on LANCE Ultra TR-FRET (Time-Resolved Fluorescence Resonance Energy Transfer) homogeneous technologies method (Perkin Elmer). Recombinant ROCK1 (amino acids 1-477) and ROCK2 (amino acids 5-554) proteins were purchased from Carna Biosciences and SignalChem. Compound activities were measured by Envision and IC50s were calculated. The assays were performed in white LUMITRAC™ 200 96 well half-area microplates from Greiner Bio-One. The kinase reaction buffer consisted of 50 mM HEPES pH 7.5, 1 mM EGTA, 10 mM MgCl2, 2 mM DTT and 0.01% Tween-20. Kinases were incubated with 50 nM (ULight-CREBtide) substrate in the presence of 1 (ROCK1) or 4 (ROCK2) μM ATP. The kinase reaction was carried out for 1 hour before addition of a stopping buffer to a final of 10 mM EDTA and 0.6 nM of LANCE Ultra Europium anti-phospho-CREB (Ser133) antibody (PerkinElmer TRF0200) in LANCE detection buffer. All assay incubations were performed at room temperature, and the microplates were sealed with polyester film during that time. The reaction was incubated for 1 hour, and the signal was read in Envision in TR-FRET mode (excitation at 320 nm and emission at 615/665 nm).
(§2) As used herein, a way to describe potency of inhibitory activity (nM) is a value of inhibitory activity at 50% (IC50).

In assay [2] the target is T2, Recombinant ROCK2 (amino acids 5-554) (Homo sapiens, UniProt O75116).
T2 construct: ROCK2 (amino acids 5-554); by word order, ROCK2 from SignalChem
T2 sequence (O75116 5-554): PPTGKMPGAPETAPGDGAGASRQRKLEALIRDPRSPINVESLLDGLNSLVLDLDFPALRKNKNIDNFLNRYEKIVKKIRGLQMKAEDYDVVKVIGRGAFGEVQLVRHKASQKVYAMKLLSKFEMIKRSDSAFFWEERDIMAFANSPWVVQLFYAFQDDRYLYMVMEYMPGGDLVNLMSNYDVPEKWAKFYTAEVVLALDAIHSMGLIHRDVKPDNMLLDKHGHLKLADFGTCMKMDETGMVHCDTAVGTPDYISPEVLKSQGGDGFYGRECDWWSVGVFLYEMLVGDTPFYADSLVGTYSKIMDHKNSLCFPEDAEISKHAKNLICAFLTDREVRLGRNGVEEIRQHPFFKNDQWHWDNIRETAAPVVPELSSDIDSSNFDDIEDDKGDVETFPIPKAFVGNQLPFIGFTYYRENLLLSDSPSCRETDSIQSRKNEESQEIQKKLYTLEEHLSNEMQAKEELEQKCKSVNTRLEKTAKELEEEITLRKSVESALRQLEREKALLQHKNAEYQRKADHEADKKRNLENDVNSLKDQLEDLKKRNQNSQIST
Description: ROCK inhibition assay, LANCE Ultra TR-FRET kinase assay (ROCK2). The assay is classed as biochemical. The note with it: 4 μM ATP, 50 nM ULight-CREBtide substrate. The method, then: as §1, §2
Background: In TR-FRET formats the signal depends on donor and acceptor labels being close together.

T1 sequence (Q13464 1-477): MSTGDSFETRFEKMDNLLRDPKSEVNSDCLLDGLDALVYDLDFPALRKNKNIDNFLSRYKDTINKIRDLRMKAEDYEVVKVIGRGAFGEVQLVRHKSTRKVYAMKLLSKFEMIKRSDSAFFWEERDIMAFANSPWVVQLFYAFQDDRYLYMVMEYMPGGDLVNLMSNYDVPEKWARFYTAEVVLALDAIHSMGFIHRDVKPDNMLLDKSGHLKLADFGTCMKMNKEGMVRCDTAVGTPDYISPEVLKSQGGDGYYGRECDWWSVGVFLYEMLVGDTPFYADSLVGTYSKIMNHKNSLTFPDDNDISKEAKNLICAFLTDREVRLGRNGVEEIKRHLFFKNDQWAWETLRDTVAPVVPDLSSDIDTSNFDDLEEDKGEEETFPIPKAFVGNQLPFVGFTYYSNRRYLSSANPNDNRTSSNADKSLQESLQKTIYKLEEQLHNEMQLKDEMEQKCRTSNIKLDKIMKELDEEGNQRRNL

The IC50 is the concentration needed to halve the response being measured. On to `Cc1nocc1-c1ccc2c(=O)n(Cc3cccc(C(=O)Nc4ccc5c(c4)CCN(C(C)C)C5)c3)ccc2c1` [Compound 98], for which the IC50 in assay [1] and in assay [2] was below 10 nM in each case.
Take `Cc1nocc1-c1ccc2c(=O)n(Cc3cccc(C(=O)Nc4ccc5c(c4)CCN(C4CC4)C5)c3)ccc2c1` [Compound 99]: the IC50 in assay [1] and in assay [2] was below 10 nM in each case.
Turning to `Cc1nocc1-c1ccc2c(=O)n(Cc3cccc(C(=O)Nc4ccc5c(c4)CNCC5)c3)ccc2c1` [Compound 100], the IC50 in assay [1] and in assay [2] was below 10 nM throughout.
As to `Cc1nocc1-c1ccc2c(=O)n(Cc3cccc(C(=O)Nc4ccc5c(c4)CN(C)CC5)c3)ccc2c1` [Compound 101], the IC50 in assay [1] and in assay [2] was below 10 nM throughout.
Consider `Cc1nocc1-c1ccc2c(=O)n(Cc3cccc(C(=O)NCCO)c3)ccc2c1` [Compound 102], for which the IC50 was above 501 nM in assay [1] and 10 to 100 nM in assay [2].
For `Cn1nccc1-c1ccc2c(=O)n(Cc3cccc(C(=O)NCC(F)(F)F)c3)ccc2c1` [Compound 103], in that order: 101 to 500 nM and 10 to 100 nM.
For the compound `Cn1nccc1-c1ccc2c(=O)n(Cc3cccc(C(=O)NC4CCOCC4)c3)ccc2c1` [Compound 104], the results for the IC50 in assay [1] and in assay [2] were 101 to 500 nM and 10 to 100 nM, respectively.
The corresponding values for `Cn1nccc1-c1ccc2c(=O)n(Cc3cccc(C(=O)NC4CCNCC4)c3)ccc2c1` [Compound 105] are below 10 nM and below 10 nM.
For `CN1CCC(NC(=O)c2cccc(Cn3ccc4cc(-c5ccnn5C)ccc4c3=O)c2)CC1` [Compound 106], in that order: below 10 nM and below 10 nM.
`Cn1nccc1-c1ccc2c(=O)n(Cc3cccc(C(=O)NC4CCN(C5COC5)CC4)c3)ccc2c1` [Compound 109]: the figures for the IC50 in assay [1] and in assay [2] were 101 to 500 nM and 10 to 100 nM, respectively.
`Cn1nccc1-c1ccc2c(=O)n(Cc3cccc(C(=O)NC4COC4)c3)ccc2c1` [Compound 110]: the IC50 in assay [1] is 101 to 500 nM; in assay [2], below 10 nM.
For `Cn1nccc1-c1ccc2c(=O)n(Cc3cccc(C(=O)NCC4COC4)c3)ccc2c1` [Compound 111], in that order: 101 to 500 nM and below 10 nM.
On to `Cn1nccc1-c1ccc2c(=O)n(Cc3cccc(C(=O)NCC4CC(O)C4)c3)ccc2c1` (stereo not shown) [Compound 112], for which the IC50 in assay [1] fell in the range of 101 to 500 nM; in assay [2], 10 to 100 nM.
For `CN1CC(CNC(=O)c2cccc(Cn3ccc4cc(-c5ccnn5C)ccc4c3=O)c2)C1` [Compound 113], in that order: 11 to 100 nM and below 10 nM.
For `Cn1nccc1-c1ccc2c(=O)n(Cc3cccc(C(=O)NCc4ccc(F)nc4)c3)ccc2c1` [Compound 114], the IC50 was 11 to 100 nM in assay [1] and below 10 nM in assay [2].
For `Cn1nccc1-c1ccc2c(=O)n(Cc3cccc(C(=O)N[C@H]4CC[C@H](O)CC4)c3)ccc2c1` [Compound 115], in that order: 101 to 500 nM and 10 to 100 nM.
For `Cn1nccc1-c1ccc2c(=O)n(Cc3cccc(C(=O)N[C@H]4CC[C@@H](O)CC4)c3)ccc2c1` [Compound 116], the values for the IC50 in assay [1] and in assay [2] were 101 to 500 nM and 10 to 100 nM, respectively.
The corresponding values for `Cn1nccc1-c1ccc2c(=O)n(Cc3cccc(C(=O)NCc4ccnc(F)c4)c3)ccc2c1` [Compound 117] are 101 to 500 nM and 10 to 100 nM.
`CC(C)N1CCC(NC(=O)c2cccc(Cn3ccc4cc(-c5ccnn5C)ccc4c3=O)c2)CC1` [Compound 118]: the IC50 in assay [1] fell in the range of 101 to 500 nM; in assay [2], 10 to 100 nM.
For `CN(C)CCNC(=O)c1cccc(Cn2ccc3cc(-c4ccnn4C)ccc3c2=O)c1` [Compound 119], in that order: 11 to 100 nM and below 10 nM.
On to `COCCNC(=O)c1cccc(Cn2ccc3cc(-c4ccnn4C)ccc3c2=O)c1` [Compound 120], for which the IC50 was in the range of 101 to 500 nM in assay [1] and 100 to 500 nM in assay [2].
For `CN1CCc2sc(NC(=O)c3cccc(Cn4ccc5cc(-c6ccnn6C)ccc5c4=O)c3)nc2C1` [Compound 121], in that order: 11 to 100 nM and below 10 nM.
Take `Cn1nccc1-c1ccc2c(=O)n(Cc3cccc(C(=O)Nc4nc5c(s4)CCNC5)c3)ccc2c1` [Compound 122]: the IC50 in assay [1] and in assay [2] was below 10 nM throughout.
With `CN1CCc2cc(NC(=O)c3cccc(Cn4ccc5cc(-c6ccnn6C)ccc5c4=O)c3)ccc2C1` [Compound 124], the IC50 in assay [1] and in assay [2] was below 10 nM throughout.
In the case of `Cn1nccc1-c1ccc2c(=O)n(Cc3cccc(C(=O)Nc4ccc5c(c4)CNCC5)c3)ccc2c1` [Compound 125], the IC50 in assay [1] and in assay [2] was below 10 nM throughout.
Take `Cn1nccc1-c1ccc2c(=O)n(Cc3cccc(C(=O)Nc4ccc5c(c4)CN(C4CC4)CC5)c3)ccc2c1` [Compound 126]: the IC50 was 11 to 100 nM in assay [1] and below 10 nM in assay [2].
For `NS(=O)(=O)c1ccc(NC(=O)c2cc(F)cc(Cn3ccc4cc(-c5c[nH]nc5C(F)(F)F)ccc4c3=O)c2)cc1` [Compound 127], in that order: 101 to 500 nM and 10 to 100 nM.
The corresponding values for `Cn1ccc(NC(=O)c2cc(F)cc(Cn3ccc4cc(-c5cn[nH]c5C(F)(F)F)ccc4c3=O)c2)n1` [Compound 128] are 11 to 100 nM and below 10 nM.
For `O=C(NCc1ccc(F)nc1)c1cc(F)cc(Cn2ccc3cc(-c4c[nH]nc4C(F)(F)F)ccc3c2=O)c1` [Compound 129], in that order: 101 to 500 nM and below 10 nM.
On to `O=C(NC1CCOCC1)c1cc(F)cc(Cn2ccc3cc(-c4c[nH]nc4C(F)(F)F)ccc3c2=O)c1` [Compound 130], for which the IC50 in assay [1] was in the range of 11 to 100 nM; in assay [2] it was 10 to 100 nM.
The corresponding values for `O=C(NC1CCNCC1)c1cc(F)cc(Cn2ccc3cc(-c4c[nH]nc4C(F)(F)F)ccc3c2=O)c1` [Compound 131] are below 10 nM and below 10 nM.
For `CN1CCC(NC(=O)c2cc(F)cc(Cn3ccc4cc(-c5c[nH]nc5C(F)(F)F)ccc4c3=O)c2)CC1` [Compound 132], in that order: below 10 nM and below 10 nM.
The corresponding values for `O=C(NC1CC1)c1cc(F)cc(Cn2ccc3cc(-c4c[nH]nc4C(F)(F)F)ccc3c2=O)c1` [Compound 133] are 101 to 500 nM and 10 to 100 nM.
As to `CN1CCC(CNC(=O)c2cc(F)cc(Cn3ccc4cc(-c5c[nH]nc5C(F)(F)F)ccc4c3=O)c2)CC1` [Compound 134], the IC50 in assay [1] was 11 to 100 nM; in assay [2] it was below 10 nM.
The corresponding values for `O=C(NCC1CCOCC1)c1cc(F)cc(Cn2ccc3cc(-c4c[nH]nc4C(F)(F)F)ccc3c2=O)c1` [Compound 135] are 101 to 500 nM and 10 to 100 nM.
The corresponding values for `O=C(NCC1COC1)c1cc(F)cc(Cn2ccc3cc(-c4c[nH]nc4C(F)(F)F)ccc3c2=O)c1` [Compound 136] are 11 to 100 nM and below 10 nM.
For `Cc1nocc1-c1ccc2c(=O)n(Cc3cc(F)cc(C(=O)N[C@H]4C[C@@H](O)C4)c3)ccc2c1` [Compound 137], in that order: 101 to 500 nM and 10 to 100 nM.
For the compound `Cc1nocc1-c1ccc2c(=O)n(Cc3cc(F)cc(C(=O)N[C@H]4C[C@H](O)C4)c3)ccc2c1` [Compound 138], the IC50 in assay [1] lay in the range of 101 to 500 nM; in assay [2], 10 to 100 nM.
The corresponding values for `Cc1nocc1-c1ccc2c(=O)n(Cc3cc(F)cc(C(=O)N[C@H]4CC[C@H](O)CC4)c3)ccc2c1` [Compound 139] are 101 to 500 nM and 100 to 500 nM.
Regarding `Cc1nocc1-c1ccc2c(=O)n(Cc3cc(F)cc(C(=O)N[C@H]4CC[C@@H](O)CC4)c3)ccc2c1` [Compound 140], the IC50 in assay [1] is 101 to 500 nM; in assay [2] it was 100 to 500 nM.
The corresponding values for `CO[C@H]1CC[C@H](NC(=O)c2cc(F)cc(Cn3ccc4cc(-c5conc5C)ccc4c3=O)c2)CC1` [Compound 141] are above 501 nM and 100 to 500 nM.
The corresponding values for `CO[C@H]1CC[C@@H](NC(=O)c2cc(F)cc(Cn3ccc4cc(-c5conc5C)ccc4c3=O)c2)CC1` [Compound 142] are above 501 nM and 100 to 500 nM.
In the case of `Cc1nocc1-c1ccc2c(=O)n(Cc3cc(F)cc(C(=O)NCCN4CCOCC4)c3)ccc2c1` [Compound 143], the IC50 fell in the range of 101 to 500 nM in assay [1] and 10 to 100 nM in assay [2].
For `Cc1nocc1-c1ccc2c(=O)n(Cc3cc(F)cc(C(=O)NCCN4CCN(C)CC4)c3)ccc2c1` [Compound 144], in that order: 11 to 100 nM and below 10 nM.
For `Cc1nocc1-c1ccc2c(=O)n(Cc3cc(F)cc(C(=O)NCC4COC4)c3)ccc2c1` [Compound 145], in that order: 101 to 500 nM and 10 to 100 nM.
For `Cc1nocc1-c1ccc2c(=O)n(Cc3cc(F)cc(C(=O)NCc4ccc(F)nc4)c3)ccc2c1` [Compound 147], in that order: 11 to 100 nM and below 10 nM.
As for `Cc1nocc1-c1ccc2c(=O)n(Cc3cc(F)cc(C(=O)NC4CCOCC4)c3)ccc2c1` [Compound 148], the IC50 in assay [1] was 101 to 500 nM; in assay [2] it was 10 to 100 nM.

The record behind these values is US12064426B2, “Selective inhibitors of ROCK1 and ROCK2 protein kinases and uses thereof” (GENOSCO Inc., priority 2021, dated 2024).
